From PubChem BioAssay (NCI)
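Briefly, cells in 96-well plates were exposed to five compound concentrations for 48 h, and endpoints were estimated by linear interpolation. TGI marks complete inhibition of growth.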

Experiments:
Assay in all cases: inhibition of tumour cell growth, NCI panel, 48 h
EKVX NSCLC = test system: EKVX NSCLC
HCT-15 colon = test system: HCT-15 colon
IGROV1 ovarian = test system: IGROV1 ovarian
HOP-62 NSCLC = test system: HOP-62 NSCLC
KM12 colon = test system: KM12 colon
UO-31 renal = test system: UO-31 renal
BT-549 breast = test system: BT-549 breast
HT29 colon = test system: HT29 colon
UACC-62 melanoma = test system: UACC-62 melanoma
NCI-H522 lung = test system: NCI-H522 lung
TK-10 renal = test system: TK-10 renal
SNB-19 CNS = test system: SNB-19 CNS
SF-539 CNS = test system: SF-539 CNS
HCC-2998 colon = test system: HCC-2998 colon
SK-OV-3 ovarian = test system: SK-OV-3 ovarian
NCI-H460 lung = test system: NCI-H460 lung
ACHN renal = test system: ACHN renal
NCI-H226 lung = test system: NCI-H226 lung
A498 renal = test system: A498 renal
SNB-75 CNS = test system: SNB-75 CNS
MOLT-4 leukemia = test system: MOLT-4 leukemia
DU-145 prostate = test system: DU-145 prostate
OVCAR-4 ovarian = test system: OVCAR-4 ovarian
MCF7 breast = test system: MCF7 breast
NCI/ADR-RES ovarian = test system: NCI/ADR-RES ovarian
OVCAR-5 ovarian = test system: OVCAR-5 ovarian
MDA-MB-231 breast = test system: MDA-MB-231 breast
SR leukemia = test system: SR leukemia
CCRF-CEM leukemia = test system: CCRF-CEM leukemia
LOX IMVI melanoma = test system: LOX IMVI melanoma
SF-295 CNS = test system: SF-295 CNS
U251 CNS = test system: U251 CNS
SK-MEL-2 melanoma = test system: SK-MEL-2 melanoma
786-0 renal = test system: 786-0 renal
M14 melanoma = test system: M14 melanoma
HCT-116 colon = test system: HCT-116 colon
HS 578T breast = test system: HS 578T breast
PC-3 prostate = test system: PC-3 prostate
UACC-257 melanoma = test system: UACC-257 melanoma
RPMI-8226 leukemia = test system: RPMI-8226 leukemia
MDA-MB-435 = test system: MDA-MB-435
MDA-N = test system: MDA-N
SN12C renal = test system: SN12C renal
K-562 leukemia = test system: K-562 leukemia
SK-MEL-5 melanoma = test system: SK-MEL-5 melanoma
SF-268 CNS = test system: SF-268 CNS
OVCAR-3 ovarian = test system: OVCAR-3 ovarian
SK-MEL-28 melanoma = test system: SK-MEL-28 melanoma
OVCAR-8 ovarian = test system: OVCAR-8 ovarian
SW-620 colon = test system: SW-620 colon
A549 NSCLC = test system: A549 NSCLC
HOP-92 NSCLC = test system: HOP-92 NSCLC
COLO 205 colon = test system: COLO 205 colon
MALME-3M melanoma = test system: MALME-3M melanoma
NCI-H23 lung = test system: NCI-H23 lung
T-47D breast = test system: T-47D breast
RXF 393 renal = test system: RXF 393 renal
CAKI-1 renal = test system: CAKI-1 renal
HL-60(TB) leukemia = test system: HL-60(TB) leukemia

COc1cc2c(cc1OCCCNC(=O)c1cc3ccccc3[nH]1)N=C[C@@H]1CCCN1C2=O
TGI (EKVX NSCLC): 5.68 µM | TGI (HCT-15 colon): > 26.9 µM | TGI (IGROV1 ovarian): 0.74 µM | TGI (HOP-62 NSCLC): 21.6 µM | TGI (KM12 colon): 1.84 µM | TGI (UO-31 renal): > 100 µM | TGI (BT-549 breast): 0.559 µM | TGI (HT29 colon): > 34.3 µM | TGI (UACC-62 melanoma): 0.705 µM | TGI (NCI-H522 lung): 0.0462 µM | TGI (TK-10 renal): > 47.5 µM | TGI (SNB-19 CNS): > 38.3 µM | TGI (SF-539 CNS): 0.539 µM | TGI (HCC-2998 colon): 10.5 µM | TGI (SK-OV-3 ovarian): > 60.2 µM | TGI (NCI-H460 lung): > 100 µM | TGI (ACHN renal): > 100 µM | TGI (NCI-H226 lung): 2.96 µM | TGI (A498 renal): 0.257 µM | TGI (SNB-75 CNS): 2.01 µM | TGI (MOLT-4 leukemia): > 100 µM | TGI (DU-145 prostate): > 34.3 µM | TGI (OVCAR-4 ovarian): 11.7 µM | TGI (MCF7 breast): > 48.1 µM | TGI (NCI/ADR-RES ovarian): 9.99 µM | TGI (OVCAR-5 ovarian): > 33.3 µM | TGI (MDA-MB-231 breast): > 35.2 µM | TGI (SR leukemia): > 100 µM | TGI (CCRF-CEM leukemia): > 100 µM | TGI (LOX IMVI melanoma): > 100 µM | TGI (SF-295 CNS): > 31.9 µM | TGI (U251 CNS): > 33.6 µM | TGI (SK-MEL-2 melanoma): 0.418 µM | TGI (786-0 renal): 41.4 µM | TGI (M14 melanoma): 1.15 µM | TGI (HCT-116 colon): 14.3 µM | TGI (HS 578T breast): 0.562 µM | TGI (PC-3 prostate): 5.79 µM | TGI (UACC-257 melanoma): > 66.4 µM | TGI (RPMI-8226 leukemia): > 100 µM | TGI (MDA-MB-435): 0.716 µM | TGI (MDA-N): 1.87 µM | TGI (SN12C renal): 14.9 µM | TGI (K-562 leukemia): > 100 µM | TGI (SK-MEL-5 melanoma): 0.297 µM | TGI (SF-268 CNS): 0.237 µM | TGI (OVCAR-3 ovarian): > 100 µM | TGI (SK-MEL-28 melanoma): 1.65 µM | TGI (OVCAR-8 ovarian): 3.64 µM | TGI (SW-620 colon): > 100 µM | TGI (A549 NSCLC): > 100 µM | TGI (HOP-92 NSCLC): > 100 µM

CC(=O)C(C(=O)c1ccc(C)cc1)[C@@H]1OC(C)(C)O[C@@H]1[C@H]1COC(C)(C)O1 (some centres undefined)
TGI (EKVX NSCLC): > 100 µM | TGI (HCT-15 colon): 37 µM | TGI (IGROV1 ovarian): > 74.8 µM | TGI (HOP-62 NSCLC): > 58.4 µM | TGI (KM12 colon): 65.6 µM | TGI (UO-31 renal): > 41.5 µM | TGI (BT-549 breast): > 32.4 µM | TGI (COLO 205 colon): 39.6 µM | TGI (HT29 colon): 20 µM | TGI (UACC-62 melanoma): 25.8 µM | TGI (NCI-H522 lung): 11.3 µM | TGI (MALME-3M melanoma): 34 µM | TGI (TK-10 renal): > 100 µM | TGI (SNB-19 CNS): > 48.3 µM | TGI (SF-539 CNS): 13.2 µM | TGI (NCI-H23 lung): 32.6 µM | TGI (HCC-2998 colon): > 53.4 µM | TGI (SK-OV-3 ovarian): > 100 µM | TGI (NCI-H460 lung): > 88.9 µM | TGI (ACHN renal): 32.5 µM | TGI (A498 renal): > 75.7 µM | TGI (SNB-75 CNS): > 59.2 µM | TGI (MOLT-4 leukemia): 22.1 µM | TGI (DU-145 prostate): 29.8 µM | TGI (OVCAR-4 ovarian): > 26.3 µM | TGI (MCF7 breast): 15.4 µM | TGI (NCI/ADR-RES ovarian): > 70.9 µM | TGI (OVCAR-5 ovarian): > 100 µM | TGI (MDA-MB-231 breast): > 35.1 µM | TGI (CCRF-CEM leukemia): > 36.2 µM | TGI (LOX IMVI melanoma): 21.8 µM | TGI (SF-295 CNS): > 100 µM | TGI (U251 CNS): 18.5 µM | TGI (SK-MEL-2 melanoma): > 23.2 µM | TGI (786-0 renal): 21.5 µM | TGI (M14 melanoma): 35.8 µM | TGI (HCT-116 colon): 15.4 µM | TGI (HS 578T breast): > 59.8 µM | TGI (PC-3 prostate): > 31.9 µM | TGI (UACC-257 melanoma): 28.6 µM | TGI (T-47D breast): > 49.8 µM | TGI (RXF 393 renal): 36.4 µM | TGI (RPMI-8226 leukemia): 12.5 µM | TGI (MDA-MB-435): > 59.8 µM | TGI (MDA-N): 54.3 µM | TGI (SN12C renal): 17.3 µM | TGI (K-562 leukemia): > 32 µM | TGI (SK-MEL-5 melanoma): 29.2 µM | TGI (CAKI-1 renal): 53.6 µM | TGI (HL-60(TB) leukemia): 25.1 µM | TGI (SF-268 CNS): > 83.4 µM | TGI (OVCAR-3 ovarian): 24.4 µM | TGI (SK-MEL-28 melanoma): > 77.7 µM | TGI (OVCAR-8 ovarian): > 50.7 µM | TGI (SW-620 colon): > 54.6 µM | TGI (A549 NSCLC): > 91.6 µM | TGI (HOP-92 NSCLC): > 100 µM
